Source: ChEMBL document CHEMBL1146371, “HSP90-like artificial chaperone activity based on indole beta-cyclodextrin” (Bioorg Med Chem, 2007)
Activity calls are given as the source filed them. No cut-off for these calls is given here.

Assay: Artificial […]-like chaperone activity assessed as prevention of citrate synthase thermal aggregation
Assay type: functional

Row | SMILES | Activity
1 | OC[C@H]1O[C@@H]2O[C@H]3[C@H](O)[C@@H](O)[C@@H](O[C@H]4[C@H](O)[C@@H](O)[C@@H](O[C@H]5[C@H](O)[C@@H](O)[C@@H](O[C@H]6[C@H](O)[C@@H](O)[C@@H](O[C@H]7[C@H](O)[C@@H](O)[C@@H](O[C@H]8[C@H](O)[C@@H](O)[C@@H](O[C@H]1[C@H](O)[C@H]2O)O[C@@H]8CO)O[C@@H]7CO)O[C@@H]6CO)O[C@@H]5CO)O[C@@H]4CO)O[C@@H]3CO | Active
2 | OC[C@H]1O[C@@H]2O[C@H]3[C@H](O)[C@@H](O)[C@@H](O[C@H]4[C@H](O)[C@@H](O)[C@@H](O[C@H]5[C@H](O)[C@@H](O)[C@@H](O[C@H]6[C@H](O)[C@@H](O)[C@@H](O[C@H]7[C@H](O)[C@@H](O)[C@@H](O[C@H]1[C@H](O)[C@H]2O)O[C@@H]7CO)O[C@@H]6CO)O[C@@H]5CO)O[C@@H]4CO)O[C@@H]3CO | inactive
